Assay results from patent US9440941B2, “Substituted chroman-6-yloxy-cycloalkanes and their use as pharmaceuticals” (SANOFI, priority 2013, dated 2016).

Key:
human NCX1 [1] = molecular target: T1, human NCX1 (Homo sapiens, UniProt P32418); assay: Inhibition of Ca2+ influx into cells (NCX1 reverse mode), FLIPR Fluo-4 assay; type: cell-based; settings: inhibition of NCX1 in reverse mode (Ca2+ influx into cells); read-out: NCX1rv IC50
T1 construct: expressed in transfected cells
Outline: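 CHO cells stably expressing human NCX1, loaded with Fluo-4 AM, preincubated with compound 45 min at 16 °C in pH 7.4 buffer (3.5 mM CaCl2). Reverse mode triggered by 20 µM gramicidin (final); Fluo-4 fluorescence read at 520 nm every 2 s. IC50 from percentage inhibition of max-minus-min fluorescence.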

human NCX1 [2] = molecular target: T1, human NCX1; assay: Inhibition of Ca2+ efflux out of cells (NCX1 forward mode), FLIPR calcium assay; type: cell-based; settings: CHO cells stably expressing human NCX1; Ca2+ efflux after Ionomycin; read-out: NCX1fw IC50 (inhibition of NCX1 in forward mode)
Source text: The sodium/calcium exchanger NCX1 can transport calcium ions and sodium ions through the cell membrane. The transport is an exchange of Ca^2+ and Na^+ in two directions depending on membrane potential and ion gradients. At the first direction, named “forward mode” or “calcium export mode”, Ca^2+ is transported out of the cell and Na^+ is transported into the cell. At the other direction, named “reverse mode” or “calcium import mode”, the transport directions are vice versa. The effect of the compounds of the invention on NCX1 was determined in CHO cells stably expressing human NCX1 (gene symbol SLC8A1; cf. WO 2009/115238). The assay is based on the monitoring of intracellular Ca^2+ concentrations using a calcium-sensitive fluorescence dye which is detected by means of a FLIPR device (Fluorimetric Imaging Plate Reader, Molecular Devices).
Assay Technology—Forward Mode
The assay is based on the monitoring of intracellular Ca^2+ concentrations using the PBX Calcium Assay Kit from BD (Becton, Dickinson and Company) with calcium indicator dye 51-9000177BKa (BD, 640177). CHO cells expressing NCX1 were loaded with the dye, and after a preincubation period with the test compound, lonomycin (Calbiochem, 407950) was added. lonomycin is an ionophor for Ca^2+ ions mediating an increase of intracellular Ca^2+ ions. Consequently, intracellular Ca^2+ ions are exchanged against extracellular Na^+ ions (Ca^2+ efflux, forward mode). The decrease of intracellular Ca^2+ ions was detected by measuring the fluorescence of the calcium indicator dye at a wavelength of 520 nm by a FLIPR device.
Briefly, similarly as for the reverse mode, for the forward mode transport assay 18000 cells per well were seeded into a 96 well microplate (Corning COSTAR 3904) and incubated overnight in culture medium (cf. above). A total volume of 100 μl medium per well was used. For the preparation of the FLIPR assay, the culture medium was removed from the plates and 100 μl of assay buffer (133.8 mM NaCl (Sigma, S5886); 4.7 mM KCl (Sigma, P3911); 1.25 mM MgCl2 (Merck, 1.05833.0250); 3.5 mM CaCl2 (Merck, 1.02083.0250); 5 mM glucose (Sigma, G7021); 10 mM Hepes (Sigma, H4034); pH 7.4)) were added to each well in a washing step. Assay buffer was removed, and 100 μl of a solution of the test compound in assay buffer in different concentrations were added into the wells. Further, 100 μl of dye solution (0.09% (v/v) calcium indicator dye, 9.1% (v/v) signal enhancer (from PBX Calcium Assay Kit); in assay buffer) were added into each well. The plates were incubated in the dark at room temperature for 60 min. Meanwhile a 10 μM solution of lonomycin in assay buffer (additionally containing 0.05% fetal calf serum (cf. above); 4° C.) was prepared and stored in the wells of a 96 well microplate (96 well microplate, polypropylene, U-shape (Greiner Bio-One, 650201)). The fluorescence monitoring was performed at 60 measuring points with measurement intervals of 2 sec. After the fifth measuring point, 50 μl of the lonomycin solution were added to each well of the assay plate to give a final lonomycin concentration of 2 μM. For the determination of the IC50 values the minimal fluorescence value was subtracted from the maximal fluorescence value for the fifteenth to fifty-fifth measuring points. The calculation of the IC50 values via the percentage inhibitions of Ca^2+ efflux out of cells (forward mode) effected by the test compound was performed in Biost@t Speed 2.0. “NCX1fw IC50” in Table 2 means the IC50 value (in μM (micromol/liter)) for inhibition of NCX1 in forward mode.

Molecule `Cc1ccccc1C1CCc2cc(O[C@H]3CC[C@@H](C(=O)NCCO)CC3)ccc2O1` (single isomer, unassigned) [Example 269, cis-4-(2-o-tolyl-chroman-6-yloxy)-cyclohexanecarboxylic acid (2-hydroxy-ethyl)-amide] has an IC50 (human NCX1 [1]) of 0.4 µM and an IC50 (human NCX1 [2]) of 3.1 µM.

`Cc1ccccc1[C@H]1CCc2cc(O[C@H]3CC[C@H](C(=O)NCCO)CC3)ccc2O1` [Example 267, trans-4-((R)-2-o-tolyl-chroman-6-yloxy)-cyclohexanecarboxylic acid (2-hydroxy-ethyl)-amide] gave an IC50 (human NCX1 [1]) of 0.2 µM and an IC50 (human NCX1 [2]) of 4.4 µM.

With `Cc1ccccc1C1CCc2cc(O[C@H]3CC[C@@H](C(=O)NCCO)CC3)ccc2O1` (single isomer, unassigned) [Example 270, cis-4-(2-o-tolyl-chroman-6-yloxy)-cyclohexanecarboxylic acid (2-hydroxy-ethyl)-amide] the IC50 (human NCX1 [1]) was 0.1 µM and the IC50 (human NCX1 [2]) was 1 µM.
